Measured values from patent US9499550B2 (BRISTOL-MYERS SQUIBB COMPANY, priority 2012, dated 2016).
Where two headings read alike, the source gives them in different places.

Columns and labels:
[1] = tested on: HCV genotype 1a (H77 strain) replicon in HUH-7 cells; assay: HCV replicon luciferase reporter assay, genotype 1a; format: cell-based; details: Hepatitis C virus, Huh-7, 72 h, 3 days incubation
Summary of the method: (§1)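 Replicon inhibition for both genotypes was measured as Renilla luciferase signal (EnduRen, 7.5 μM final, 2 h) after 3-day, 37° C exposure of replicon-bearing HUH-7 cells in 4% FCS DMEM, 0.5% DMSO. The 1b construct carries S1179I; the 1a H77 construct carries P1496L and S2204I. Twenty-point, 3-fold dilutions were fitted four-parametrically for EC50, and CC50 was taken from multiplexed Cell Titer-Blue.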

[2] = tested on: HCV genotype 1b (Con1) replicon in HUH-7 cells; assay: HCV replicon luciferase reporter assay, genotype 1b; format: cell-based; details: Hepatitis C virus, Huh-7, 72 h, 3 days incubation
Summary of the method: as §1

[3] = HCV genotype 1a replicon luciferase, read-out: LE_1a (EC50, range)
[4] = HCV genotype 1b replicon luciferase, read-out: LE_1b (EC50, range)
[5] = HCV genotype 1a replicon luciferase assay, range class, read-out: LE_1a (EC50, range)
[6] = HCV genotype 1b replicon luciferase assay, range class, read-out: LE_1b (EC50, range)

CC(C)Oc1cc2ccccc2c(O[C@@H]2C[C@H]3C(=O)N[C@]4(C(=O)NS(=O)(=O)C5(CF)CC5)C[C@H]4/C=C\CC[C@@H](C)C[C@@H](C)[C@H](NC(=O)OC(C)(C)C(C)(F)F)C(=O)N3C2)n1 [Compound 6118, 3,3-difluoro-2-methylbutan-2-yl((2R,6S,7R,9R,13aS,14aR,16aS,Z)-14a-(((1-(fluoromethyl)cyclopropyl)sulfonyl)carbamoyl)-2-((3-isopropoxyisoquinolin-1-yl)oxy)-7,9-dimethyl-5,16-dioxo-1,2,3,5,6,7,8,9,10,11,13a,14,14a,15,16,16a-hexadecahydrocyclopropa[e]pyrrolo[1,2-a][1,4]diazacyclopentadecin-6-yl)carbamate]
EC50 [1, 3]: 1.01 to 5 nM
EC50 [2, 4]: 1.01 to 5 nM

COc1nnc(O[C@@H]2C[C@H]3C(=O)N[C@]4(C(=O)NS(=O)(=O)C5(C)CC5)C[C@H]4/C=C\CC[C@@H](C)C[C@@H](C)[C@H](NC(=O)OC(C)(C)C(F)(F)F)C(=O)N3C2)c2ccccc12 [Compound 5008, 1,1,1-trifluoro-2-methylpropan-2-yl((2R,6S,7R,9R,13aS,14aR,16aS,Z)-2-((4-methoxyphthalazin-1-yl)oxy)-7,9-dimethyl-14a-(((1-methylcyclopropyl)sulfonyl)carbamoyl)-5,16-dioxo-1,2,3,5,6,7,8,9,10,11,13a,14,14a,15,16,16a-hexadecahydrocyclopropa[e]pyrrolo[1,2-a][1,4]diazacyclopentadecin-6-yl)carbamate]
EC50 [1, 3]: < 5.46 nM
EC50 [2, 4]: < 5.46 nM

COc1ccc2c(O[C@@H]3C[C@H]4C(=O)N[C@]5(C(=O)NS(=O)(=O)C6(C)CC6)C[C@H]5/C=C\CC[C@H](C)C[C@@H](C)[C@H](NC(=O)OC(C)(C)C(F)(F)F)C(=O)N4C3)nc(OC)cc2c1 [Compound 1132, 1,1,1-trifluoro-2-methylpropan-2-yl((2R,6S,7R,9S,13aS,14aR,16aS,Z)-2-((3,6-dimethoxyisoquinolin-1-yl)oxy)-7,9-dimethyl-14a-(((1-methylcyclopropyl)sulfonyl)carbamoyl)-5,16-dioxo-1,2,3,5,6,7,8,9,10,11,13a,14,14a,15,16,16a-hexadecahydrocyclopropa[e]pyrrolo[1,2-a][1,4]diazacyclopentadecin-6-yl)carbamate]
EC50 [1, 5]: < 5.46 nM
EC50 [2, 6]: < 5.46 nM

CC[C@@H]1C[C@H](C)CC/C=C\[C@@H]2C[C@@]2(C(=O)NS(=O)(=O)C2(C)CC2)NC(=O)[C@@H]2C[C@@H](Oc3nccc4cc(OC)c(F)cc34)CN2C(=O)[C@H]1NC(=O)OC(C)(C)C [Compound 4175, tert-butyl (2R,6S,7R,9R,13aS,14aR,16aS,Z)-7-ethyl-2-(7-fluoro-6-methoxyisoquinolin-1-yloxy)-9-methyl-14a-(1-methylcyclopropylsulfonylcarbamoyl)-5,16-dioxo-1,2,3,5,6,7,8,9,10,11,13a,14,14a,15,16,16a-hexadecahydrocyclopropa[e]pyrrolo[1,2-a][1,4]diazacyclopentadecin-6-ylcarbamate]
EC50 [1, 3]: < 5.46 nM
EC50 [2, 4]: < 5.46 nM

COc1cnc(O[C@@H]2C[C@H]3C(=O)N[C@]4(C(=O)NS(=O)(=O)C5(C)CC5)C[C@H]4/C=C\CC[C@@H](C)C[C@@H](C)[C@H](NC(=O)OC(C)(C)C(F)(F)F)C(=O)N3C2)c2ccc(N(C)C)cc12 [Compound 3138, 1,1,1-trifluoro-2-methylpropan-2-yl((2R,6S,7R,9R,13aS,14aR,16aS,Z)-2-((6-(dimethylamino)-4-methoxyisoquinolin-1-yl)oxy)-7,9-dimethyl-14a-(((1-methylcyclopropyl)sulfonyl)carbamoyl)-5,16-dioxo-1,2,3,5,6,7,8,9,10,11,13a,14,14a,15,16,16a-hexadecahydrocyclopropa[e]pyrrolo[1,2-a][1,4]diazacyclopentadecin-6-yl)carbamate]
EC50 [1, 5]: < 5.46 nM
EC50 [2, 6]: < 5.46 nM

COc1ccc2c(O[C@@H]3C[C@H]4C(=O)N[C@]5(C(=O)NS(=O)(=O)C6CC6)C[C@H]5/C=C\CC[C@H](C)C[C@@H](C)[C@H](NC(=O)NC(C)(C)C)C(=O)N4C3)nc(-c3ccc(OC(C)C)nc3)cc2c1 [Compound 5220, (2R,6S,7R,9S,13aS,14aR,16aS,Z)-6-(3-(tert-butyl)ureido)-N-(cyclopropylsulfonyl)-2-((3-(6-isopropoxypyridin-3-yl)-6-methoxyisoquinolin-1-yl)oxy)-7,9-dimethyl-5,16-dioxo-1,2,3,5,6,7,8,9,10,11,13a,14,14a,15,16,16a-hexadecahydrocyclopropa[e]pyrrolo[1,2-a][1,4]diazacyclopentadecine-14a-carboxamide]
EC50 [1, 3]: < 5.46 nM
EC50 [2, 4]: < 5.46 nM

CCOc1cc2ccnc(O[C@@H]3C[C@H]4C(=O)N[C@]5(C(=O)NS(=O)(=O)C6CC6)C[C@H]5/C=C\CC[C@@H](C)C[C@@H](CC)[C@H](NC(=O)OC(C)(C)C(C)(F)F)C(=O)N4C3)c2cc1F [Compound 5409, 3,3-difluoro-2-methylbutan-2-yl((2R,6S,7R,9R,13aS,14aR,16aS,Z)-14a-((cyclopropylsulfonyl)carbamoyl)-2-((6-ethoxy-7-fluoroisoquinolin-1-yl)oxy)-7-ethyl-9-methyl-5,16-dioxo-1,2,3,5,6,7,8,9,10,11,13a,14,14a,15,16,16a-hexadecahydrocyclopropa[e]pyrrolo[1,2-a][1,4]diazacyclopentadecin-6-yl)carbamate]
EC50 [1, 3]: 1.01 to 5 nM
EC50 [2, 4]: 0.51 to 1 nM

COc1ccc2c(O[C@@H]3C[C@H]4C(=O)N[C@]5(C(=O)NS(=O)(=O)C6(C)CC6)C[C@H]5/C=C\CC[C@@H](C)C[C@@H](C)[C@H](NC(=O)OC(C)(C)C(F)(F)F)C(=O)N4C3)nc(OC)cc2c1 [Compound 1133, 1,1,1-trifluoro-2-methylpropan-2-yl((2R,6S,7R,9R,13aS,14aR,16aS,Z)-2-((3,6-dimethoxyisoquinolin-1-yl)oxy)-7,9-dimethyl-14a-(((1-methylcyclopropyl)sulfonyl)carbamoyl)-5,16-dioxo-1,2,3,5,6,7,8,9,10,11,13a,14,14a,15,16,16a-hexadecahydrocyclopropa[e]pyrrolo[1,2-a][1,4]diazacyclopentadecin-6-yl)carbamate]
EC50 [1, 5]: < 5.46 nM
EC50 [2, 6]: < 5.46 nM

CCOc1nnc(O[C@@H]2C[C@H]3C(=O)N[C@]4(C(=O)NS(=O)(=O)C5(C)CC5)C[C@H]4/C=C\CC[C@H](C)C[C@@H](C)[C@H](NC(=O)OC(C)(C)C)C(=O)N3C2)c2ccccc12 [Compound 5028, tert-butyl ((2R,6S,7R,9S,13aS,14aR,16aS,Z)-2-((4-ethoxyphthalazine-1-yl)oxy)-7,9-dimethyl-14a-(((1-methylcyclopropyl)sulfonyl)carbamoyl)-5,16-dioxo-1,2,3,5,6,7,8,9,10,11,13a,14,14a,15,16,16a-hexadecahydrocyclopropa[e]pyrrolo[1,2-a][1,4]diazacyclopentadecin-6-yl)carbamate]
EC50 ([1]; HCV genotype 1a replicon luciferase, read-out: LE_1a (EC50)): 6.28 nM
EC50 [1, 3]: 4.82 to 103 nM
EC50 ([2]; HCV genotype 1b replicon luciferase, read-out: LE_1b (EC50)): 2.96 nM
EC50 [2, 4]: < 5.46 nM

CC[C@@H]1C[C@H](C)CC/C=C\[C@@H]2C[C@@]2(C(=O)NS(=O)(=O)C2CC2)NC(=O)[C@@H]2C[C@@H](Oc3ncc(C(=O)O)c4cc(OC)ccc34)CN2C(=O)[C@H]1NC(=O)OC(C)(C)C(F)(F)F [Compound 4279, 1-(((2R,6S,7R,9R,13aS,14aR,16aS,Z)-14a-((cyclopropylsulfonyl)carbamoyl)-7-ethyl-9-methyl-5,16-dioxo-6-((((1,1,1-trifluoro-2-methylpropan-2-yl)oxy)carbonyl)amino)-1,2,3,5,6,7,8,9,10,11,13a,14,14a,15,16,16a-hexadecahydrocyclopropa[e]pyrrolo[1,2-1,2-a][1,4]diazacyclopentadecin-2-yl)oxy)-6-methoxyisoquinoline-4-carboxylic acid]
EC50 [1, 3]: 35 to 620 nM
EC50 [2, 4]: 35 to 620 nM
